Experimental findings from ChEMBL document CHEMBL5608199, “Quaternized antimicrobial peptide mimics based on harmane as potent anti-MRSA agents by multi-target mechanism covering cell wall, cell membrane and intracellular targets” (Eur J Med Chem, 2024) are described below.

In brackets after ≈: the same amount, converted by molar mass. Activity calls are given as the source filed them. The rule behind the calls is not given here. A value given as a limit tells only on which side of the number the result lay.

The test system of assay [1] is Staphylococcus aureus. As to the kind of experiment: Drug resistance, ratio of MIC for methicillin-resistant Staphylococcus aureus ATCC 33591 after 12 passages to MIC for methicillin-resistant Staphylococcus aureus ATCC 33591 during first exposure. It counts as functional.
Assay [2] has as its system Staphylococcus aureus. Nature of the assay: Drug resistance, ratio of MIC for methicillin-resistant Staphylococcus aureus ATCC 33591 after 10 passages to MIC for methicillin-resistant Staphylococcus aureus ATCC 33591 during first exposure. It counts as functional.
The test system of assay [3] is Staphylococcus aureus. As to the kind of experiment: Drug resistance, ratio of MIC for methicillin-resistant Staphylococcus aureus ATCC 33591 after 9 passages to MIC for methicillin-resistant Staphylococcus aureus ATCC 33591 during first exposure. It counts as functional.
Assay [4] concerns Staphylococcus aureus. As to the kind of experiment: Antibacterial activity against Staphylococcus aureus CMCC 26003 incubated for 18 hrs by two fold serial broth dilution method. It counts as functional. (In general: Broth dilution looks for growth in wells or tubes with falling amounts of substance.)
Assay [5] relates to Staphylococcus aureus. Nature of the assay: Antibacterial activity against methicillin-resistant Staphylococcus aureus ATCC 33591 infected in cyclophosphamide treated female KM mouse skin infection model assessed as reduction in number of bacterial clones in skin at 3.3 mg/kg administered for 4 days and measured on day 5. It counts as functional, organism-based. The conditions noted are these: time 5.0 day.

In another assay the test system is Escherichia coli. As to the kind of experiment: Antibacterial activity against Escherichia coli ATCC 8739 incubated for 18 hrs by two fold serial broth dilution method. It counts as functional.
Assay [6] concerns Staphylococcus aureus. Nature of the assay: Antibacterial activity against methicillin-resistant Staphylococcus aureus ATCC 33591 infected in cyclophosphamide treated female KM mouse skin infection model assessed as reduction in inflammatory cell infiltration at 3.3 mg/kg administered for 4 days and measured on day 5 by H and E staining based analysis. It counts as functional, organism-based. Conditions: time 5.0 day.

Assay [7] relates to Staphylococcus aureus. As to the kind of experiment: Antibacterial activity against methicillin-resistant Staphylococcus aureus CGMCC 1.12409 incubated for 18 hrs by two fold serial broth dilution method. It counts as functional.
Assay [8] has as its system Staphylococcus aureus. Nature of the assay: Antibacterial activity against methicillin-resistant Staphylococcus aureus ATCC 33591 incubated for 18 hrs by two fold serial broth dilution method. It counts as functional.
Assay [9] concerns Staphylococcus aureus. As to the kind of experiment: Antibacterial activity against methicillin-resistant Staphylococcus aureus ATCC 43300 incubated for 18 hrs by two fold serial broth dilution method. It counts as functional.
Assay [10] deals with Staphylococcus aureus. Nature of the assay: Antibacterial activity against Staphylococcus aureus ATCC 29213 incubated for 18 hrs by two fold serial broth dilution method. It counts as functional.

As to `CCn1cc(C(=O)O)c(=O)c2cc(F)c(N3CCNCC3)cc21` [NORFLOXACIN], the results for the Ratio in the assay on Staphylococcus aureus [1], in the assay on Staphylococcus aureus [2] and in the assay with Staphylococcus aureus [3] were 2, >16 and 16, respectively.

Usually MIC stands for the least concentration at which growth counts as inhibited. Read a low MIC as a more susceptible organism. As for `CN[C@H](CC(C)C)C(=O)N[C@H]1C(=O)N[C@@H](CC(N)=O)C(=O)N[C@H]2C(=O)N[C@H]3C(=O)N[C@H](C(=O)N[C@H](C(=O)O)c4cc(O)cc(O)c4-c4cc3ccc4O)[C@H](O)c3ccc(c(Cl)c3)Oc3cc2cc(c3O[C@@H]2O[C@H](CO)[C@@H](O)[C@H](O)[C@H]2O[C@H]2C[C@](C)(N)[C@H](O)[C@H](C)O2)Oc2ccc(cc2Cl)[C@H]1O` [VANCOMYCIN], the results for the MIC with Staphylococcus aureus [4] and in the assay with Escherichia coli were 0.25 µg/mL (≈ 0.173 µM) and > 128 µg/mL, respectively. Moreover, the outcome in the assay on Staphylococcus aureus [5] and in the assay on Staphylococcus aureus [6] was Active.

In the case of `CC[N+](C)(CC)CCn1c2ccccc2c2cc[n+](C)c(C)c21.[I-].[I-]`, the MIC against Staphylococcus aureus [7], with Staphylococcus aureus [8], in the assay on Staphylococcus aureus [9], in the assay with Staphylococcus aureus [4], against Staphylococcus aureus [10] and in the assay with Escherichia coli was > 128 µg/mL each time.

Turning to `Cc1nccc2c3ccccc3n(CCCCCCn3c4ccccc4c4ccnc(C)c43)c12`, the MIC with Staphylococcus aureus [7], against Staphylococcus aureus [8], in the assay on Staphylococcus aureus [9], against Staphylococcus aureus [4], against Staphylococcus aureus [10] and with Escherichia coli was > 128 µg/mL throughout.

With `Cc1c2[nH]c3ccccc3c2cc[n+]1C.[I-]`, the MIC in the assay on Staphylococcus aureus [7], in the assay with Staphylococcus aureus [8], in the assay on Staphylococcus aureus [9], with Staphylococcus aureus [4], against Staphylococcus aureus [10] and with Escherichia coli was > 128 µg/mL throughout.

With `Cc1nccc2c3ccccc3n(CCCCn3c4ccccc4c4ccnc(C)c43)c12`, the MIC with Staphylococcus aureus [7], with Staphylococcus aureus [8], in the assay with Staphylococcus aureus [9], against Staphylococcus aureus [4], in the assay on Staphylococcus aureus [10] and against Escherichia coli was > 128 µg/mL each time.

On to `CCC[n+]1ccc2c3ccccc3n(CC[N+](C)(C)CCC)c2c1C.[Br-].[Br-]`, for which the minimum inhibitory concentration (MIC) against Staphylococcus aureus [7], against Staphylococcus aureus [8], in the assay on Staphylococcus aureus [9], in the assay with Staphylococcus aureus [4], against Staphylococcus aureus [10] and in the assay on Escherichia coli was > 128 µg/mL each time.

For the compound `Cc1nccc2c3ccccc3n(CCCCCn3c4ccccc4c4ccnc(C)c43)c12`, the MIC against Staphylococcus aureus [7], in the assay with Staphylococcus aureus [8], against Staphylococcus aureus [9], in the assay with Staphylococcus aureus [4], with Staphylococcus aureus [10] and in the assay with Escherichia coli was > 128 µg/mL in each case.

On to `CC[n+]1ccc2c3ccccc3n(CC[N+](CC)(CC)CC)c2c1C.[Br-].[Br-]`, for which the MIC against Staphylococcus aureus [7], against Staphylococcus aureus [8], in the assay with Staphylococcus aureus [9], in the assay with Staphylococcus aureus [4], against Staphylococcus aureus [10] and against Escherichia coli was > 128 µg/mL each time.

With `CCN(CC)CCn1c2ccccc2c2ccnc(C)c21`, the MIC with Staphylococcus aureus [7] is > 128 µg/mL; against Staphylococcus aureus [8], 128 µg/mL (≈ 455 µM); in the assay with Staphylococcus aureus [9] it was 128 µg/mL (≈ 455 µM); with Staphylococcus aureus [4], 128 µg/mL (≈ 455 µM); against Staphylococcus aureus [10] it was 128 µg/mL (≈ 455 µM); in the assay with Escherichia coli it was 128 µg/mL (≈ 455 µM).

Turning to `CCCC[n+]1ccc2c3ccccc3n(CCN(C)C)c2c1C.[Br-]`, the minimal inhibitory concentration (MIC) with Staphylococcus aureus [7] is > 128 µg/mL; in the assay on Staphylococcus aureus [8], 128 µg/mL; in the assay on Staphylococcus aureus [9], > 128 µg/mL; in the assay with Staphylococcus aureus [4], 128 µg/mL; against Staphylococcus aureus [10], > 128 µg/mL; against Escherichia coli, > 128 µg/mL.

For `CCCC[n+]1ccc2c3ccccc3n(CCN(CC)CC)c2c1C.[Br-]`, the MIC is 64 µg/mL against Staphylococcus aureus [7]; 64 µg/mL against Staphylococcus aureus [8]; 128 µg/mL in the assay on Staphylococcus aureus [9]; 64 µg/mL in the assay with Staphylococcus aureus [4]; > 128 µg/mL in the assay with Staphylococcus aureus [10]; > 128 µg/mL in the assay on Escherichia coli.

In the case of `Cc1nccc2c3ccccc3n(CCN(C)C)c12`, the minimal inhibitory concentration (MIC) against Staphylococcus aureus [7] was > 128 µg/mL; against Staphylococcus aureus [8], > 128 µg/mL; in the assay on Staphylococcus aureus [9], > 128 µg/mL; against Staphylococcus aureus [4], > 128 µg/mL; in the assay on Staphylococcus aureus [10] it was > 128 µg/mL; against Escherichia coli, 64 µg/mL (≈ 253 µM).

Take `CCC[n+]1ccc2c3ccccc3n(CCN(CC)CC)c2c1C.[Br-]`: the MIC is > 128 µg/mL in the assay with Staphylococcus aureus [7]; 128 µg/mL with Staphylococcus aureus [8]; > 128 µg/mL against Staphylococcus aureus [9]; 64 µg/mL in the assay with Staphylococcus aureus [4]; > 128 µg/mL with Staphylococcus aureus [10]; > 128 µg/mL with Escherichia coli.

With `[2H]C([2H])([2H])[n+]1ccc2c([nH]c3ccccc32)c1C.[I-]`, the MIC with Staphylococcus aureus [7], against Staphylococcus aureus [8], against Staphylococcus aureus [9], against Staphylococcus aureus [4], in the assay with Staphylococcus aureus [10] and in the assay with Escherichia coli was > 128 µg/mL throughout.

Regarding `Cc1nccc2c3ccccc3n(CCCCCCCn3c4ccccc4c4ccnc(C)c43)c12`, the MIC against Staphylococcus aureus [7], against Staphylococcus aureus [8], in the assay with Staphylococcus aureus [9], in the assay on Staphylococcus aureus [4], with Staphylococcus aureus [10] and against Escherichia coli was > 128 µg/mL in each case.

`[2H]C([2H])([2H])[n+]1ccc2c3ccccc3n(CC[N+](CC)(CC)C([2H])([2H])[2H])c2c1C.[I-].[I-]`: the MIC against Staphylococcus aureus [7], with Staphylococcus aureus [8], in the assay on Staphylococcus aureus [9], with Staphylococcus aureus [4], in the assay on Staphylococcus aureus [10] and in the assay on Escherichia coli was > 128 µg/mL throughout.

As to `CCCCC[n+]1ccc2c3ccccc3n(CCN(CC)CC)c2c1C.[Br-]`, the MIC against Staphylococcus aureus [7] came to 64 µg/mL; with Staphylococcus aureus [8] it was 32 µg/mL; against Staphylococcus aureus [9], 32 µg/mL; in the assay with Staphylococcus aureus [4] it was 16 µg/mL; in the assay on Staphylococcus aureus [10], 64 µg/mL; in the assay on Escherichia coli, 128 µg/mL.

With `CC[n+]1ccc2c3ccccc3n(CC[N+](C)(C)CC)c2c1C.[Br-].[Br-]`, the MIC with Staphylococcus aureus [7], against Staphylococcus aureus [8], against Staphylococcus aureus [9], against Staphylococcus aureus [4], in the assay on Staphylococcus aureus [10] and in the assay on Escherichia coli was > 128 µg/mL throughout.

Take `CCCC[n+]1ccc2c3ccccc3n(CC[N+](C)(C)CCCC)c2c1C.[Br-].[Br-]`: the MIC was > 128 µg/mL against Staphylococcus aureus [7]; 128 µg/mL with Staphylococcus aureus [8]; > 128 µg/mL against Staphylococcus aureus [9]; 128 µg/mL in the assay on Staphylococcus aureus [4]; > 128 µg/mL in the assay on Staphylococcus aureus [10]; > 128 µg/mL against Escherichia coli.

Regarding `[2H]C([2H])([2H])[n+]1ccc2c3ccccc3n(CC[N+](C)(C)C([2H])([2H])[2H])c2c1C.[I-].[I-]`, the MIC in the assay with Staphylococcus aureus [7], against Staphylococcus aureus [8], against Staphylococcus aureus [9], with Staphylococcus aureus [4], against Staphylococcus aureus [10] and in the assay with Escherichia coli was > 128 µg/mL throughout.

For the compound `Cc1c2c(cc[n+]1C)c1ccccc1n2CCCCCCCn1c2ccccc2c2cc[n+](C)c(C)c21.[I-].[I-]`, the MIC in the assay on Staphylococcus aureus [7] came out at 1 µg/mL; with Staphylococcus aureus [8], 0.5 µg/mL; in the assay with Staphylococcus aureus [9] it was 2 µg/mL; against Staphylococcus aureus [4], 0.5 µg/mL; in the assay on Staphylococcus aureus [10] it was 8 µg/mL; in the assay with Escherichia coli it was 16 µg/mL.

Turning to `Cc1c2c(cc[n+]1C)c1ccccc1n2CC[N+](C)(C)C.[I-].[I-]`, the MIC with Staphylococcus aureus [7], with Staphylococcus aureus [8], in the assay with Staphylococcus aureus [9], against Staphylococcus aureus [4], with Staphylococcus aureus [10] and against Escherichia coli was > 128 µg/mL throughout.

With `Cc1nccc2c3ccccc3n(CCCCCCCCn3c4ccccc4c4ccnc(C)c43)c12`, the MIC against Staphylococcus aureus [7], against Staphylococcus aureus [8], against Staphylococcus aureus [9], with Staphylococcus aureus [4], in the assay on Staphylococcus aureus [10] and with Escherichia coli was > 128 µg/mL in each case.

Consider `CCCCC[n+]1ccc2c3ccccc3n(CC[N+](C)(C)CCCCC)c2c1C.[Br-].[Br-]`, for which the MIC against Staphylococcus aureus [7], with Staphylococcus aureus [8], in the assay on Staphylococcus aureus [9], in the assay on Staphylococcus aureus [4], against Staphylococcus aureus [10] and in the assay with Escherichia coli was > 128 µg/mL throughout.
